How the values were obtained:
Assay type in all cases: in vivo
Cyclamen plants = test: Spray with 1-MCP solutions, ethylene challenge (Example 1); conditions: Day 7; for Appearance: 1 = poor, 5 = excellent
Method: (§1) Spray applications were made using (unless otherwise noted) AFxRD-038 powder containing 3.8% active ingredient, i.e. 1-MCP, and also containing dextrose, alpha-cyclodextrin, and amino acid salt. Rates listed are for active ingredient e.g. 5 mg active ingredient per liter. Sprayed liquid contained (unless otherwise noted) AFxRD-038 powder added to water. AFxRD-038 powder was obtained from AgroFresh Inc. The water used (unless otherwise noted) was tap water. Applications were done in 500 ml spray bottles at rates typical for growth regulators applications in the ornamental industry i.e., 200 ml per square meter. Spraying was done within 5-15 minutes of mixing the formulation. Plants were allowed to dry for 1-4 hours before being challenged with ethylene (2 ppm for about 16 hours at ambient temperatures).
(§2) Visual appearance and flower or bud abscission of Impatiens (unknown cultivar in pots with diameter of 10 cm (4 inch)) and Cyclamen plants (unknown cultivar in pots of diameter 11.5 cm (4.5 inch)) sprayed with 1-MCP solutions and challenged with ethylene.

Impatiens = test: as above; conditions: 0 = poor, 5 = excellent
Method: as §1, §2

Campanula = test: Spray with 1-MCP solutions without surfactant, ethylene challenge (Example 3)
Method: as §1
Bud wilting and flower abscission (%) of Campanula (in pots) sprayed with 1-MCP solutions without a surfactant, and challenged with ethylene. We observed the percent of plants on which one or more buds or one or more flowers underwent wilting or abscission or both.

[1] = system: ‘Hark’ Phalaenopsis orchids; test: Spray with 1-MCP solutions with or without Silwet L-77, ethylene challenge (Example 7)
Method: as §1
Surfactant Silwet™ L-77 (called “surf” below) was sometimes included to evaluate the effect of surfactant on efficacy. Silwet™ L-77 was used in the form of a pure liquid. The amounts shown below as “ml/L” refer to milliliters of pure Silwet™ L-77 per liter of liquid CP composition.
Percent of plants showing one or more of flower wilting, bud wilting, and drop on ‘Hark’ Phalaenopsis orchids (in pots) sprayed with 1-MCP solutions with or without Silwet™ L-77 surfactant and challenged with ethylene.

[2] = system: Callibrachoa “Cherry Blossom”; test: Racks of flowering plants sprayed, truck 14 hours, ethylene challenge (Example 8); conditions: 25 mg/L, 200 ml/square meter, scale 0 (poor) to 2 (good)
Method: as §1
(§3) Racks of flowers were sprayed with spray liquid containing 25 mg/L at rate of 200 ml/square meter. Racks were then placed into a full enclosed truck (length 7.3 meter) for 14 hours. Plants were then challenged with ethylene and evaluated 3 and 7 days later, using a rating scale from 0 (poor) to 2 (good). […]

Dianthus (mixed) = test: as above; conditions: 25 mg/L, 200 ml/square meter, scale 0 (poor) to 2 (good)
Method: as §1, §3

Dianthus “Ideal White” = test: as above; conditions: 25 mg/L, 200 ml/square meter, scale 0 (poor) to 2 (good)
Method: as §1, §3

Impatiens (dark pink) = test: as above; conditions: 25 mg/L, 200 ml/square meter, scale 0 (poor) to 2 (good)
Method: as §1, §3

Impatiens (double pink) = test: as above; conditions: 25 mg/L, 200 ml/square meter, scale 0 (poor) to 2 (good)
Method: as §1, §3

Impatiens (light pink) = test: as above; conditions: 25 mg/L, 200 ml/square meter, scale 0 (poor) to 2 (good)
Method: as §1, §3

Petunia “Royal Velvet” = test: as above; conditions: 25 mg/L, 200 ml/square meter, scale 0 (poor) to 2 (good)
Method: as §1, §3

Snapdragon (yellow) = test: as above; conditions: 25 mg/L, 200 ml/square meter, scale 0 (poor) to 2 (good)
Method: as §1, §3

Verbena “babylon Red” = test: as above; conditions: 25 mg/L, 200 ml/square meter, scale 0 (poor) to 2 (good)
Method: as §1, §3

Asclepias = test: Nursery plants sprayed, boxed and shipped, quality rating (Example 10); conditions: 50 mg/L of 1-MCP; after 5 days shipping; 0 (poor) to 2 (good)
Method: (§4) A range of nursery plants that often show quality problems during shipping were chosen including Datura (tropical), Mini-rose, Delphinium (sun perennial), Verbena (sun perennial), Asclepias (sun perennial), Delosperma (groundcover), Myosotis (shade perennial) and Primula (shade perennial).
(§5) Spray liquid had 50 mg/L of 1-MCP. Sprayed and unsprayed control plants, all of which were blooming, were packed in boxes according to standard procedures and shipped under commercial conditions. After 5 days plants were unpacked and given a quality rating, from 0 (poor) to 2 (good).

Datura (tropical) = test: as above; conditions: 50 mg/L of 1-MCP; after 5 days shipping; 0 (poor) to 2 (good)
Method: as §4, §5

Delosperma = test: as above; conditions: 50 mg/L of 1-MCP; after 5 days shipping; 0 (poor) to 2 (good)
Method: as §4, §5

Delphinium = test: as above; conditions: 50 mg/L of 1-MCP; after 5 days shipping; 0 (poor) to 2 (good)
Method: as §4, §5

Mini-rose = test: as above; conditions: 50 mg/L of 1-MCP; after 5 days shipping; 0 (poor) to 2 (good)
Method: as §4, §5

Myosotis = test: as above; conditions: 50 mg/L of 1-MCP; after 5 days shipping; 0 (poor) to 2 (good)
Method: as §4, §5

Primula = test: as above; conditions: 50 mg/L of 1-MCP; after 5 days shipping; 0 (poor) to 2 (good)
Method: as §4, §5

Verbena = test: as above; conditions: 50 mg/L of 1-MCP; after 5 days shipping; 0 (poor) to 2 (good)
Method: as §4, §5

SMILES: CC1=CC1 [1-MCP, 1-methylcyclopropene]
- Abscission (%) (Cyclamen plants; 1-MCP 10 mg/L): 25.6%
- Appearance (Cyclamen plants; 1-MCP 10 mg/L): 3.7
- Abscission (%) (Cyclamen plants; 1-MCP 15 mg/L): 23.3%
- Appearance (Cyclamen plants; 1-MCP 15 mg/L): 3.7
- Abscission (%) (Cyclamen plants; 1-MCP 25 mg/L): 25.0%
- Appearance (Cyclamen plants; 1-MCP 25 mg/L): 3.7
- Appearance (Impatiens; 1-MCP 10 mg/L, Day 1): 3.7
- Appearance (Impatiens; 1-MCP 10 mg/L, Day 4): 3.3
- Appearance (Impatiens; 1-MCP 100 mg/L, Day 1): 4.3
- Appearance (Impatiens; 1-MCP 100 mg/L, Day 4): 3.7
- Appearance (Impatiens; 1-MCP 300 mg/L, Day 1): 2.3
- Appearance (Impatiens; 1-MCP 300 mg/L, Day 4): 1.3
- Bud Wilting and/or Flower Abscission (%) (Campanula; 1-MCP 5 mg/L, Day 1): 21%
- Bud Wilting and/or Flower Abscission (%) (Campanula; 1-MCP 5 mg/L, Day 7): 25%
- Bud Wilting and/or Flower Abscission (%) (Campanula; 1-MCP 10 mg/L, Day 1): 45%
- Bud Wilting and/or Flower Abscission (%) (Campanula; 1-MCP 10 mg/L, Day 7): 52%
- Bud Wilting and/or Flower Abscission (%) (Campanula; 1-MCP 25 mg/L, Day 1): 38%
- Bud Wilting and/or Flower Abscission (%) (Campanula; 1-MCP 25 mg/L, Day 7): 59%
- Bud Wilting and/or Flower Abscission (%) (Campanula; 1-MCP 50 mg/L, Day 1): 38%
- Bud Wilting and/or Flower Abscission (%) (Campanula; 1-MCP 50 mg/L, Day 7): 57%
- flower wilt, bud wilt, and/or drop (%) ([1]; 1-MCP 5 mg/L, surf 0 ml/L, Day 0): 0 a %
- flower wilt, bud wilt, and/or drop (%) ([1]; 1-MCP 5 mg/L, surf 0 ml/L, Day 5): 1.8%
- flower wilt, bud wilt, and/or drop (%) ([1]; 1-MCP 5 mg/L, surf 0 ml/L, Day 10): 1.8%
- flower wilt, bud wilt, and/or drop (%) ([1]; 1-MCP 5 mg/L, surf 0 ml/L, Day 15): 1.8%
- flower wilt, bud wilt, and/or drop (%) ([1]; 1-MCP 10 mg/L, surf 0 ml/L, Day 0): 0 a %
- flower wilt, bud wilt, and/or drop (%) ([1]; 1-MCP 10 mg/L, surf 0 ml/L, Day 5): 2.9%
- flower wilt, bud wilt, and/or drop (%) ([1]; 1-MCP 10 mg/L, surf 0 ml/L, Day 10): 2.9%
- flower wilt, bud wilt, and/or drop (%) ([1]; 1-MCP 10 mg/L, surf 0 ml/L, Day 15): 2.9%
- flower wilt, bud wilt, and/or drop (%) ([1]; 1-MCP 25 mg/L, surf 0 ml/L, Day 0): 0 a %
- flower wilt, bud wilt, and/or drop (%) ([1]; 1-MCP 25 mg/L, surf 0 ml/L, Day 5): 0%
- flower wilt, bud wilt, and/or drop (%) ([1]; 1-MCP 25 mg/L, surf 0 ml/L, Day 10): 0%
- flower wilt, bud wilt, and/or drop (%) ([1]; 1-MCP 25 mg/L, surf 0 ml/L, Day 15): 0%
- flower wilt, bud wilt, and/or drop (%) ([1]; 1-MCP 50 mg/L, surf 0 ml/L, Day 0): 0 a %
- flower wilt, bud wilt, and/or drop (%) ([1]; 1-MCP 50 mg/L, surf 0 ml/L, Day 5): 1.8%
- flower wilt, bud wilt, and/or drop (%) ([1]; 1-MCP 50 mg/L, surf 0 ml/L, Day 10): 1.8%
- flower wilt, bud wilt, and/or drop (%) ([1]; 1-MCP 50 mg/L, surf 0 ml/L, Day 15): 1.8%
- flower wilt, bud wilt, and/or drop (%) ([1]; 1-MCP 50 mg/L, surf 0.25 ml/L, Day 0): 0 a %
- flower wilt, bud wilt, and/or drop (%) ([1]; 1-MCP 50 mg/L, surf 0.25 ml/L, Day 5): 0%
- flower wilt, bud wilt, and/or drop (%) ([1]; 1-MCP 50 mg/L, surf 0.25 ml/L, Day 10): 0%
- flower wilt, bud wilt, and/or drop (%) ([1]; 1-MCP 50 mg/L, surf 0.25 ml/L, Day 15): 0%
- rating, Sprayed ([2]; Day 3): 1.00 a
- rating, Sprayed ([2]; Day 7): 1.00 a
- rating, Sprayed (Dianthus (mixed); Day 3): 0.58 a
- rating, Sprayed (Dianthus (mixed); Day 7): 0.25 a
- rating, Sprayed (Dianthus “Ideal White”; Day 3): 0.92 a
- rating, Sprayed (Dianthus “Ideal White”; Day 7): 1.00 a
- rating, Sprayed (Impatiens (dark pink); Day 3): 1.00 a
- rating, Sprayed (Impatiens (dark pink); Day 7): 0.83 a
- rating, Sprayed (Impatiens (double pink); Day 3): 1.00 a
- rating, Sprayed (Impatiens (double pink); Day 7): 0.58 a
- rating, Sprayed (Impatiens (light pink); Day 3): 1.00 a
- rating, Sprayed (Impatiens (light pink); Day 7): 1.00 a
- rating, Sprayed (Petunia “Royal Velvet”; Day 3): 1.00 a
- rating, Sprayed (Petunia “Royal Velvet”; Day 7): 0.38 a
- rating, Sprayed (Snapdragon (yellow); Day 3): 0.83 a
- rating, Sprayed (Snapdragon (yellow); Day 7): 0.58 a
- rating, Sprayed (Verbena “babylon Red”; Day 3): 0.58 a
- rating, Sprayed (Verbena “babylon Red”; Day 7): 0.19 a
- Quality Rating, Sprayed (Asclepias): 1.5
- Quality Rating, Sprayed (Datura (tropical)): 2.0
- Quality Rating, Sprayed (Delosperma): 1.3
- Quality Rating, Sprayed (Delphinium): 1.0
- Quality Rating, Sprayed (Mini-rose): 1.8
- Quality Rating, Sprayed (Myosotis): 0.5
- Quality Rating, Sprayed (Primula): 1.0
- Quality Rating, Sprayed (Verbena): 0.5

— patent publication US20110034335A1, “Treatment of Ornamental Plants” (priority 2009, published 2011)
